Experimental data taken from US20090263416A1, “REDUCTION OF ANTIBIOTIC RESISTANCE IN BACTERIA” (priority 2006, published 2009).

What was measured:
Type in all cases: cell-based
E. coli of swine origin = experiment: Curing of antibiotic resistance (replica plating); settings: for curing for amoxicillin and clavulanic acid / curing for ampicillin / curing for chloramphenicol: isolates treated with EB or IDU
Experimental: (§1) Plasmid curing of antibiotic resistant bacteria was measured as described by Lakshmi and Thomas (1989) and NCCLS (2000). Briefly, aliquots (final inoculum concentration approximately 1×10^5 CFU/ml) of Salmonella isolates, E. coli isolates, and commercial isolates of E. coli XL1-blue and E. coli RK2 were added to tubes containing 1 ml aliquots of increasing concentrations of P-YCWP or YCWP (0, 0.01, 0.1, 0.3, 0.5, 1.0, 2.0, 3.0% w/v). A control culture was established by adding bacterial isolates as described above to aliquots of increasing concentrations of mannose. Known curing agents [ethidium bromide and iododeoxyuridine (IDU)] were used as positive controls, and to provide a percent curing activity. Tubes were incubated at 35° C. for 24 hr.
(§2) Following incubation, bacterial aliquots were plated on MacConkey agar plates (master plates). Antibiotic resistance after treatment was evaluated by replica plating on MacConkey agar containing predetermined concentrations of antimicrobial agents. Minimum curing concentration (MCC) was defined as the minimum concentration of compound able to “cure” bacteria, that is, remove antibiotic resistance, within a 24 hr period. A sample was considered to contain bacteria resistant to an antibiotic when greater than 1% of a sample plated on a master plate of MacConkey agar grew on an antibiotic-containing replica plate.

S. pullorum (1) = experiment: Agglutination; settings: sugar 100 mM
Experimental: (§3) E. coli and Salmonella isolates were evaluated for ability to agglutinate P-YCWP and YCWP by growing isolates into TIF slants (10 g peptone, 5 g NaCl, 5 g yeast extract and 15 g bacto agar per liter) for 24 hr. Sugar solutions (100 mM) of glucose, mannose, or fructose were prepared in 100 mM phosphate-buffered solution (PBS) at pH 7.2. Yeast cell wall preparations were suspended (1 g YCWP) into 1 liter of PBS. The grown isolates were resuspended in PBS and mixed with 0.1 ml PBS as control or 0.1 ml sugar solution (glucose, mannose, or fructose) to occupy bacterial attachment sites. For adherence tests, 10 μl of P-YCWP or YCWP suspension was placed on a series of microscope slides. The negative control was […] of PBS mixed with YCWP suspension. Bacterial suspension (10 μl) as described above was added, mixed using an orbital shaker, and observed under light microscope (100-1000× magnification). The ability of any of the sugars to inhibit or weaken agglutination was considered evidence that that sugar played a role in agglutination/attachment for that bacteria.

E. coli (30) = experiment: Agglutination; settings: sugar 100 mM
Experimental: as §3

S. Cholerasuis (2) = experiment: Agglutination; settings: sugar 100 mM
Experimental: as §3

Salmonella spp. (13) = experiment: Agglutination; settings: sugar 100 mM
Experimental: as §3

E. coli XL1-blue = experiment: Curing / plasmid loss, narrow range plasmid strain; settings: FIG. 4
Experimental: as §1
(§4) Following incubation, bacterial aliquots were plated on MacConkey agar plates (master plates). Antibiotic resistance after treatment was evaluated by replica plating on MacConkey agar containing predetermined concentrations of antimicrobial agents. Minimum curing concentration (MCC) was defined as the minimum concentration of compound able to “cure” bacteria, that is, remove antibiotic resistance, within a 24 hr period. […]
(§5) Plasmids were evaluated by microbial lysis and extraction of DNA (Mini-prep System, Bio-Rad Laboratories, Hercules, Calif.), followed by electrophoretic separation on 1% agarose gel (Bio-Rad). […]

[1] = test system: S. enteritidis (ATCC 13076); experiment: Curing / plasmid loss; settings: streptomycin-resistant; 24 hr exposure, replica plating
Experimental: as §1, §4, §5

[2] = test system: E. coli ATCC 33766, plasmid pRK248clts; experiment: Curing, broad range plasmid strain; settings: tetracycline-resistant determinant; data not shown
Experimental: as §1, §2

For `CC[n+]1c(-c2ccccc2)c2cc(N)ccc2c2ccc(N)cc21` [EB, ethidium bromide], the “curing for amoxicillin and clavulanic acid” value (E. coli of swine origin) was 100%, the curing for ampicillin (E. coli of swine origin) was 5% and the curing for chloramphenicol (E. coli of swine origin) was 100%.
For `O=C(CO)[C@@H](O)[C@H](O)[C@H](O)CO` [Fructcose, fructose], the “agglutination with YCWP or P-YCWP in presence of sugar” value (“agglutination with YCWP or P-YCWP” below) (S. pullorum (1)) was “Negative (−)”, the “agglutination with YCWP or P-YCWP” value (E. coli (30)) was “Negative (−)” and the “agglutination with YCWP or P-YCWP” value (S. Cholerasuis (2)) was “Negative (−)”. For the same compound, the “agglutination with YCWP or P-YCWP” value (Salmonella spp. (13)) was “Negative (−)”.
With `O=c1[nH]c(=O)n([C@H]2C[C@H](O)[C@@H](CO)O2)cc1I` [IDU, iododeoxyuridine] the curing (E. coli XL1-blue) was “curing was seen”, the curing [1] was “Neither EB nor IDU showed any curing capacity” and the “curing of the organism carrying the broad range plasmid” value [2] was “Neither yeast cell wall preparations nor traditional curing agents (EB, IDU) cured the organism”. The curing for neomycin (E. coli of swine origin; EB or IDU treatment) was “no curing”, the curing for tetracycline (E. coli of swine origin; EB or IDU treatment) was “no curing” and the “curing for amoxicillin and clavulanic acid” value (E. coli of swine origin) was 100%. The curing for ampicillin (E. coli of swine origin) was 5% and the curing for chloramphenicol (E. coli of swine origin) was 100%.
